From article PMC11728000, “Antitumor Activity and Multi-Target Mechanism of Phenolic Schiff Bases Bearing Methanesulfonamide Fragments: Cell Cycle Analysis and a Molecular Modeling Study” (International Journal of Molecular Sciences, 2024)
Several values for one entry are separate records, joined by “and”; a condition that tells them apart may be missing. Equal values may be shown once.

How the values were obtained:
RPMI-8226 = test system: RPMI-8226; set-up: method as in https://dtp.cancer.gov/dtpstandard/dwindex/index.jsp; conditions: PRMI-8226; ref https://dtp.cancer.gov/dtpstandard/dwindex/index.jsp; cited from earlier work
SK-MEL-5 = test system: SK-MEL-5; set-up: method as in https://dtp.cancer.gov/dtpstandard/dwindex/index.jsp; conditions: ref https://dtp.cancer.gov/dtpstandard/dwindex/index.jsp; cited from earlier work
MOLT-4 = assay: NCI anticancer screening (SRB), Leukemia subpanel; type: cell-based, human; conditions: for GI%: 10.0 µM in one dose
A549/ATCC = assay: NCI anticancer screening (SRB), Non-Small Cell Lung Cancer subpanel; type: cell-based, human; conditions: for GI%: 10.0 µM in one dose
HOP-62 = assay: as above; type: cell-based, human; conditions: for GI%: 10.0 µM in one dose
NCI-H226 = assay: as above; type: cell-based, human; conditions: for GI%: 10.0 µM in one dose
HCT-15 = assay: NCI anticancer screening (SRB), Colon Cancer subpanel; type: cell-based, human; conditions: for GI%: 10.0 µM in one dose
SNB-19 = assay: NCI anticancer screening (SRB), CNS Cancer subpanel; type: cell-based, human; conditions: for GI%: 10.0 µM in one dose
U251 = assay: as above; type: cell-based, human; conditions: for GI%: 10.0 µM in one dose
LOX IMVI = assay: NCI anticancer screening (SRB), Melanoma subpanel; type: cell-based, human; conditions: for GI%: 10.0 µM in one dose
SK-MEL-28 = assay: NCI anticancer screening (SRB), Melanoma subpanel; type: cell-based, human; conditions: for GI%: 10.0 µM in one dose
OVCAR-5 = assay: NCI anticancer screening (SRB), Ovarian Cancer subpanel; type: cell-based, human; conditions: for GI%: 10.0 µM in one dose
OVCAR-8 = assay: as above; type: cell-based, human; conditions: for GI%: 10.0 µM in one dose
NCI/ADR-RES = assay: as above; type: cell-based, human; conditions: for GI%: 10.0 µM in one dose
786-0 = assay: NCI anticancer screening (SRB), Renal Cancer subpanel; type: cell-based, human; conditions: for GI%: 10.0 µM in one dose
ACHN = assay: as above; type: cell-based, human; conditions: for GI%: 10.0 µM in one dose
CAKI-1 = assay: as above; type: cell-based, human; conditions: for GI%: 10.0 µM in one dose
TK-10 = assay: as above; type: cell-based, human; conditions: for GI%: 10.0 µM in one dose
UO-31 = assay: as above; type: cell-based, human; conditions: for GI%: 10.0 µM in one dose
MDA-MB-231/ATCC = assay: NCI anticancer screening (SRB), Breast Cancer subpanel; type: cell-based, human; conditions: for GI%: 10.0 µM in one dose
HS 578T = assay: as above; type: cell-based, human; conditions: for GI%: 10.0 µM in one dose
BT-549 = assay: as above; type: cell-based, human; conditions: for GI%: 10.0 µM in one dose
T-47D = assay: as above; type: cell-based, human; conditions: for GI%: 10.0 µM in one dose
in vitro = conditions: human
Protocol: (§1) the measured protein at the end of the drug treatment as compared to that at the beginning) indicating a net loss of cells following treatment was calculated from [(Ti − Tz)/Tz] […] = − 50.
(§2) Values were calculated for each of these three parameters if the activity level was reached; however, if the effect was not reached or exceeded, that parameter's value was expressed as more or less than the maximum or minimum concentration tested. The log GI50, log TGI, and log LC50 were then determined and defined as the mean of the logs of the individual GI50, TGI, and LC50 values. The lowest values are obtained with the most sensitive cell lines. The compound with log GI50 values −4 and <−4 was declared active.
(§3) 2. In vitro cytotoxic activity towards normal fibroblast (WI-38) cells Cell Lines were obtained from the American Type Culture Collection; cells were cultured using DMEM (Invitrogen/Life Technologies) supplemented with 10% FBS (Hyclone), ten ug/ml of insulin (Sigma), and 1% penicillin–streptomycin. Cultures were removed from the incubator into a laminar flow hood, reconstituted with 3 mL of balanced salt solution without phenol red and serum, and then added to an amount equal to 10% of the culture medium volume. Cultures returned to the incubator for 2–4 h. After the incubation period, the resulting formazan crystals dissolved […]
(§4) medium volume. The absorbance was measured Spectrophotometrically at a wavelength of 570 […]
3. In vitro cyclooxygenase (COX-2) inhibition assay
(§5) The ability of the test compounds to inhibit COX-2 was determined using an enzyme immunoassay […]
manufacturer’s instructions.

COX-2 = target: T1, COX-2 (Ovis aries, UniProt P79208); assay: biochemical; conditions: read-out: IC50, COX-2 Inhibition
T1 construct: purchased Cayman Chemical 560101
T1 sequence (P79208 17-603): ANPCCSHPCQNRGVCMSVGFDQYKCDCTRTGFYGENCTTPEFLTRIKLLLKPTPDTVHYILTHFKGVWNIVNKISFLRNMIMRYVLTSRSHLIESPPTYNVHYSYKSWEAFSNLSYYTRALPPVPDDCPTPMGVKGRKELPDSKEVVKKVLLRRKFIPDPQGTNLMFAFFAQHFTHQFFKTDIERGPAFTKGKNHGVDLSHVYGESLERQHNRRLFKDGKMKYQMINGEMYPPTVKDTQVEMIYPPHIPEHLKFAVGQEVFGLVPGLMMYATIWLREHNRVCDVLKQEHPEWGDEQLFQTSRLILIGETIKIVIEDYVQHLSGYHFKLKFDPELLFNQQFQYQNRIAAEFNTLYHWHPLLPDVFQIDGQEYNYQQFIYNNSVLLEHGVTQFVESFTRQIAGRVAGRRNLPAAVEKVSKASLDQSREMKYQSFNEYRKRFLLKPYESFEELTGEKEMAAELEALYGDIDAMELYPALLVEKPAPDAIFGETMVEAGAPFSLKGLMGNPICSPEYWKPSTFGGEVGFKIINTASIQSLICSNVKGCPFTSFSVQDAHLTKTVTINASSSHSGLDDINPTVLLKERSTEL
Protocol: as §1
as §2, with “log GI50 values −4 and <−4 was declared active.” left out
as §3, with “volume.” for “volume. Cultures returned to the incubator for 2–4 h. After the incubation period, the resulting formazan crystals dissolved”
as §4, §5

caspase-9 = assay: Apoptotic markers assay, caspase-9 level in MCF-7 cells; type: cell-based, human; conditions: MCF-7 cells treated at IC50 concentrations; vs untreated control = 1
Protocol: We measured the apoptosis promoter Bax levels, the apoptosis inhibitor Bcl−2, and the apoptosis coordination enzymes caspase-8 and caspase-9 [32].
The apoptotic marker method was carried out using the reported procedure using MCF-7, the cancer cell line (Supplementary Materials). […]
7. Caspase-8 and 9 activation assay
A breast carcinoma (MCF-7) cell line was obtained from ATCC. […]
allowed cells to grow at 37 °C, stimulated with the compounds to be tested for caspase-8 or caspase-9 and lysed with Cell Extraction Buffer. Standard Diluent Buffer was used to dilute the lysate over the range of the assay and measure human active caspase-8 or caspase-9 content. (cells are Plated in a density of 1.2-1.8 X 10,000 cells/well in a volume of 100 µL complete growth medium + 100 µL of the tested compound per well in a 96-well plate for 24/48 h before the enzyme assay).
8. Evaluation of Bax and Bcl-2 expressions m RNA isolation was carried out using an RNeasy extraction kit, up to 1 X 107 cells. They were disrupted in Buffer RLT and homogenized. Ethanol was added to the lysate to promote the selective binding of RNA to the RNeasy membrane. Then, the sample was applied to the RNeasy

HOP-92 = test system: HOP-92; set-up: method as in https://dtp.cancer.gov/dtpstandard/dwindex/index.jsp; conditions: ref https://dtp.cancer.gov/dtpstandard/dwindex/index.jsp; cited from earlier work
[1] = Homo sapiens, five concentrations

Cc1ccc(-c2cc(C(F)(F)F)nn2-c2ccc(S(N)(=O)=O)cc2)cc1 [Celecoxib, celecoxib]
GI50 (RPMI-8226): 3980 nM
GI50 (SK-MEL-5): 15800 nM

CS(=O)(=O)Nc1ccc(C(=O)NN=Cc2ccccc2O)cc1 [Compound 7]
GI% (MOLT-4): 50%
GI% (A549/ATCC): 11%
GI% (HOP-62): 61%
GI% (NCI-H226): 25%
GI% (HCT-15): 67%
GI% (SNB-19): 32%
GI% (U251): 56%
GI% (LOX IMVI): 53%
GI% (SK-MEL-28): 37%
GI% (OVCAR-5): 23%
GI% (OVCAR-8): 32%
GI% (NCI/ADR-RES): 41%
GI% (786-0): 25%
GI% (ACHN): 46%
GI% (CAKI-1): 35%
GI% (TK-10): 21%
GI% (UO-31): 64%
GI% (MDA-MB-231/ATCC): 34%
GI% (HS 578T): 11%
GI% (BT-549): 27%
GI% (T-47D): 18%
IC50 (in vitro): 111000 nM
IC50 (COX-2): 20900 ± 820 nM
Casp9, Gene Expression (Fold Change) (caspase-9): 2.99 fold change and 2.990 fold change

CCN(CC)c1ccc(C=NNC(=O)c2ccc(NS(C)(=O)=O)cc2)c(O)c1 [Compound 8]
GI% (MOLT-4): 90%
GI50 (MOLT-4; [1]): 372 nM
GI% (A549/ATCC): 88%
GI50 (A549/ATCC; [1]): 1340 nM
GI% (HOP-62): 87%
GI50 (HOP-62; [1]): 189 nM
GI% (NCI-H226): 61%
GI50 (NCI-H226; [1]): 986 nM
GI% (HCT-15): 80%
GI50 (HCT-15; [1]): 358 nM
GI% (SNB-19): 65%
GI50 (SNB-19; [1]): 831 nM
GI% (U251): 76%
GI50 (U251; Homo sapiens, U-251, five concentrations): 226 nM
GI% (LOX IMVI): 100%
GI50 (LOX IMVI; [1]): 209 nM
GI% (SK-MEL-28): 77%
GI50 (SK-MEL-28; [1]): 381 nM
GI% (OVCAR-5): 54%
GI50 (OVCAR-5; [1]): 1890 nM
GI% (OVCAR-8): 88%
GI50 (OVCAR-8; [1]): 312 nM
GI% (NCI/ADR-RES): 63%
GI50 (NCI/ADR-RES; [1]): 2580 nM
GI% (786-0): 98%
GI50 (786-0; [1]): 358 nM
GI% (ACHN): 84%
GI50 (ACHN; [1]): 513 nM
GI% (CAKI-1): 81%
GI50 (CAKI-1; [1]): 464 nM
GI% (TK-10): 52%
GI50 (TK-10; [1]): 1050 nM
GI% (UO-31): 87%
GI50 (UO-31; [1]): 346 nM
GI% (MDA-MB-231/ATCC): 62%
GI50 (MDA-MB-231/ATCC; [1]): 425 nM
GI% (HS 578T): 44%
GI50 (HS 578T; [1]): 1470 nM
GI% (BT-549): 88%
GI50 (BT-549; [1]): 569 nM
GI% (T-47D): 74%
GI50 (T-47D; Homo sapiens, T47D, five concentrations): 382 nM
IC50 (in vitro): 82100 nM
IC50 (COX-2): 12800 ± 510 nM
Casp9, Gene Expression (Fold Change) (caspase-9): 3.776 fold change

C#Cc1cccc(Nc2ncnc3cc(OCCOC)c(OCCOC)cc23)c1 [Erlotinib, erlotinib]
GI50 (RPMI-8226): 25100 nM
GI50 (HOP-92): 3980 nM

COc1cc2ncnc(Nc3ccc(F)c(Cl)c3)c2cc1OCCCN1CCOCC1 [Gefitinib, gefitinib]
GI50 (HOP-92): 316 nM
GI50 (SK-MEL-5): 3160 nM
